PubChem BioAssay (NCI)
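Briefly, cells in 96-well plates were exposed to five compound concentrations for 48 h, and endpoints were estimated by linear interpolation. TGI is the concentration that stops growth completely.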

Experiments:
Assay in all cases: DTP human tumour cell line panel, 48 h
NCI-H226 lung = test system: NCI-H226 lung
SNB-75 CNS = test system: SNB-75 CNS
A549 NSCLC = test system: A549 NSCLC
M14 melanoma = test system: M14 melanoma
RXF-631 renal = test system: RXF-631 renal
HL-60(TB) leukemia = test system: HL-60(TB) leukemia
KM20L2 colon = test system: KM20L2 colon
NCI-H522 lung = test system: NCI-H522 lung
CCRF-CEM leukemia = test system: CCRF-CEM leukemia
RXF 393 renal = test system: RXF 393 renal
CAKI-1 renal = test system: CAKI-1 renal
U251 CNS = test system: U251 CNS
NCI-H460 lung = test system: NCI-H460 lung
ACHN renal = test system: ACHN renal
NCI-H23 lung = test system: NCI-H23 lung
786-0 renal = test system: 786-0 renal
HCT-116 colon = test system: HCT-116 colon
HOP-92 NSCLC = test system: HOP-92 NSCLC
SN12C renal = test system: SN12C renal
SNB-19 CNS = test system: SNB-19 CNS
UACC-257 melanoma = test system: UACC-257 melanoma
KM12 colon = test system: KM12 colon
COLO 205 colon = test system: COLO 205 colon
IGROV1 ovarian = test system: IGROV1 ovarian
UACC-62 melanoma = test system: UACC-62 melanoma
DLD-1 colon = test system: DLD-1 colon
HCT-15 colon = test system: HCT-15 colon
SF-268 CNS = test system: SF-268 CNS
SK-MEL-2 melanoma = test system: SK-MEL-2 melanoma
DMS 273 small cell lung = test system: DMS 273 small cell lung
MOLT-4 leukemia = test system: MOLT-4 leukemia
OVCAR-5 ovarian = test system: OVCAR-5 ovarian
HT29 colon = test system: HT29 colon
LXFL 529 NSCLC = test system: LXFL 529 NSCLC
LOX IMVI melanoma = test system: LOX IMVI melanoma
SK-MEL-28 melanoma = test system: SK-MEL-28 melanoma
RPMI-8226 leukemia = test system: RPMI-8226 leukemia
HCC-2998 colon = test system: HCC-2998 colon
SK-MEL-5 melanoma = test system: SK-MEL-5 melanoma
DMS 114 small cell lung = test system: DMS 114 small cell lung
HOP-18 NSCLC = test system: HOP-18 NSCLC
SF-295 CNS = test system: SF-295 CNS
OVCAR-4 ovarian = test system: OVCAR-4 ovarian
TK-10 renal = test system: TK-10 renal
OVCAR-3 ovarian = test system: OVCAR-3 ovarian
SR leukemia = test system: SR leukemia
M19-MEL melanoma = test system: M19-MEL melanoma
HOP-62 NSCLC = test system: HOP-62 NSCLC
SNB-78 CNS = test system: SNB-78 CNS
EKVX NSCLC = test system: EKVX NSCLC
A498 renal = test system: A498 renal
OVCAR-8 ovarian = test system: OVCAR-8 ovarian
MALME-3M melanoma = test system: MALME-3M melanoma
K-562 leukemia = test system: K-562 leukemia
XF 498 CNS = test system: XF 498 CNS
UO-31 renal = test system: UO-31 renal
SF-539 CNS = test system: SF-539 CNS
SK-OV-3 ovarian = test system: SK-OV-3 ovarian
SW-620 colon = test system: SW-620 colon

SMILES: CCOC(OCC)C(CC)[Se]c1ccccc1 (stereo not drawn)
- TGI (NCI-H226 lung): > 100 µM
- TGI (SNB-75 CNS): > 100 µM
- TGI (A549 NSCLC): > 100 µM
- TGI (M14 melanoma): 93.7 µM
- TGI (RXF-631 renal): > 100 µM
- TGI (HL-60(TB) leukemia): 19 µM
- TGI (KM20L2 colon): 38.2 µM
- TGI (NCI-H522 lung): 46.2 µM
- TGI (CCRF-CEM leukemia): > 100 µM
- TGI (RXF 393 renal): > 100 µM
- TGI (CAKI-1 renal): > 100 µM
- TGI (U251 CNS): > 100 µM
- TGI (NCI-H460 lung): > 100 µM
- TGI (ACHN renal): > 100 µM
- TGI (NCI-H23 lung): 73.9 µM
- TGI (786-0 renal): > 100 µM
- TGI (HCT-116 colon): > 100 µM
- TGI (HOP-92 NSCLC): > 100 µM
- TGI (SN12C renal): > 100 µM
- TGI (SNB-19 CNS): > 100 µM
- TGI (UACC-257 melanoma): > 100 µM
- TGI (KM12 colon): > 100 µM
- TGI (COLO 205 colon): > 100 µM
- TGI (IGROV1 ovarian): > 100 µM
- TGI (UACC-62 melanoma): > 100 µM
- TGI (DLD-1 colon): > 100 µM
- TGI (HCT-15 colon): 35 µM
- TGI (SF-268 CNS): > 100 µM
- TGI (SK-MEL-2 melanoma): > 100 µM
- TGI (DMS 273 small cell lung): 28.4 µM
- TGI (MOLT-4 leukemia): > 100 µM
- TGI (OVCAR-5 ovarian): > 100 µM
- TGI (HT29 colon): > 100 µM
- TGI (LXFL 529 NSCLC): > 100 µM
- TGI (LOX IMVI melanoma): 21.6 µM
- TGI (SK-MEL-28 melanoma): > 100 µM
- TGI (RPMI-8226 leukemia): 57.5 µM
- TGI (HCC-2998 colon): > 100 µM
- TGI (SK-MEL-5 melanoma): > 100 µM
- TGI (DMS 114 small cell lung): 8.89 µM
- TGI (HOP-18 NSCLC): > 100 µM
- TGI (SF-295 CNS): > 100 µM
- TGI (OVCAR-4 ovarian): > 100 µM
- TGI (TK-10 renal): > 100 µM
- TGI (OVCAR-3 ovarian): > 100 µM
- TGI (SR leukemia): 47.7 µM
- TGI (M19-MEL melanoma): > 100 µM
- TGI (HOP-62 NSCLC): > 100 µM
- TGI (SNB-78 CNS): > 100 µM
- TGI (EKVX NSCLC): > 100 µM
- TGI (A498 renal): > 100 µM
- TGI (OVCAR-8 ovarian): > 100 µM
- TGI (MALME-3M melanoma): > 100 µM
- TGI (K-562 leukemia): > 100 µM
- TGI (XF 498 CNS): > 100 µM
- TGI (UO-31 renal): > 100 µM
- TGI (SF-539 CNS): > 100 µM
- TGI (SK-OV-3 ovarian): > 100 µM

SMILES: COc1ccc(N=Nc2c(-c3ccccc3)nn(C(=O)CC(=O)Nc3ccccc3Cl)c2-c2ccccc2)cc1
- TGI (NCI-H226 lung): > 100 µM
- TGI (SNB-75 CNS): > 100 µM
- TGI (A549 NSCLC): > 100 µM
- TGI (M14 melanoma): > 100 µM
- TGI (RXF-631 renal): > 100 µM
- TGI (HL-60(TB) leukemia): > 100 µM
- TGI (KM20L2 colon): > 100 µM
- TGI (NCI-H522 lung): > 100 µM
- TGI (CCRF-CEM leukemia): > 100 µM
- TGI (RXF 393 renal): > 100 µM
- TGI (CAKI-1 renal): > 100 µM
- TGI (U251 CNS): > 100 µM
- TGI (NCI-H460 lung): > 100 µM
- TGI (ACHN renal): > 100 µM
- TGI (NCI-H23 lung): > 100 µM
- TGI (786-0 renal): > 100 µM
- TGI (HCT-116 colon): > 100 µM
- TGI (HOP-92 NSCLC): > 100 µM
- TGI (SN12C renal): > 100 µM
- TGI (SW-620 colon): > 100 µM
- TGI (SNB-19 CNS): > 100 µM
- TGI (UACC-257 melanoma): > 100 µM
- TGI (KM12 colon): > 100 µM
- TGI (COLO 205 colon): > 100 µM
- TGI (IGROV1 ovarian): > 100 µM
- TGI (UACC-62 melanoma): > 100 µM
- TGI (DLD-1 colon): > 100 µM
- TGI (HCT-15 colon): > 100 µM
- TGI (SF-268 CNS): > 100 µM
- TGI (DMS 273 small cell lung): > 100 µM
- TGI (MOLT-4 leukemia): 8.85 µM
- TGI (OVCAR-5 ovarian): > 100 µM
- TGI (HT29 colon): > 100 µM
- TGI (LXFL 529 NSCLC): > 100 µM
- TGI (LOX IMVI melanoma): > 100 µM
- TGI (SK-MEL-28 melanoma): > 100 µM
- TGI (HCC-2998 colon): > 100 µM
- TGI (SK-MEL-5 melanoma): > 100 µM
- TGI (DMS 114 small cell lung): > 100 µM
- TGI (HOP-18 NSCLC): > 100 µM
- TGI (SF-295 CNS): > 100 µM
- TGI (OVCAR-4 ovarian): > 100 µM
- TGI (TK-10 renal): > 100 µM
- TGI (OVCAR-3 ovarian): > 100 µM
- TGI (SR leukemia): 11.3 µM
- TGI (M19-MEL melanoma): > 100 µM
- TGI (HOP-62 NSCLC): > 100 µM
- TGI (SNB-78 CNS): > 100 µM
- TGI (EKVX NSCLC): > 100 µM
- TGI (A498 renal): > 100 µM
- TGI (OVCAR-8 ovarian): > 100 µM
- TGI (MALME-3M melanoma): > 100 µM
- TGI (K-562 leukemia): > 100 µM
- TGI (UO-31 renal): > 100 µM
- TGI (SF-539 CNS): > 100 µM
